Here are results for four compounds from patent publication US12606554B2, “Compounds and pharmaceutical compositions thereof for the treatment of diseases” (ONCO3R Therapeutics BV, priority 2019, dated 2026).

The structures appear in SMILES notation.

For experiment [1] the following is noted: mice; Wein et al. 2016; cited from earlier work.
A further experiment has as its target T1, SIK1 (Homo sapiens, UniProt P57059).
T1 construct: purchased Carna Biosciences 02-131
Put plainly: ADP-Glo kinase assay, SIK1. The conditions noted are these: AMARA peptide 45 μM, 5 μM ATP, 120 min, read-out: SIM1 IC50. It is filed as biochemical. An excerpt:
(§1) The ADP-Glo™ kinase assay is a luminescent technology assay which measures the ADP formed from a kinase reaction. In this specific study, the kinase reactions consisted of the phosphorylation of the AMARA peptide substrate (SignalChem, Cat #A11-58) by SIK1 (Carma Biosciences, Cat #02-131), SIK2 (ThermoFisher Scientific, Cat #PV4792) or SIK3 (SignalChem, Cat #S12-11G-100). In a second step the kinase reactions are terminated and all the remaining ATP is depleted. In a final step the ADP is converted into ATP and this newly synthesized ATP is measured by using a luciferase/luciferin reaction. The generated light is measured using an Envision plate reader, wherein the luminescent signal obtained positively correlates with the kinase activity.
(§2) The test compounds are prepared as a serial dilution of 10 point dose responses with ⅕ dilution steps in 100% DMSO starting from 2 mM highest concentration, diluted 1/20 in water and […] is transferred to the assay plates (PerkinElmer Inc., Cat #6007290).
(§3) 1% DMSO and 10 μM staurosporine final concentrations are used as negative and positive controls.
(§4) 2 μL enzyme-substrate mixture is added to the assay plates.
(§5) The reaction is started by adding 2 μL diluted ATP on the assay plates. Plates are centrifuged for a few seconds at 1000 rpm and gently shaken for 2 min followed by an incubation at RT for 120 min.
(§6) The reactions are stopped and the unconsumed ATP is depleted by adding 5 μL ADP-Glo Reagent (Promega, Cat #V9121B) to the reaction. The plates are centrifuged for a few seconds at 1000 rpm and incubated at RT for […] (ATP depletion).
(§7) The ADP is converted to ATP and luciferase and luciferin is introduced to detect ATP by adding 10 μL Kinase Detection Reagent (Promega, Cat #V913B+V914r) to the reaction. The plates are centrifuged for a few seconds at 1000 rpm and incubated at RT for 30 min (ADP detection).
(§8) Luminescence is measured on an Envision plate reader (PerkinElmer Inc.).
(§9) Raw data are generated following the read-out performed on the TopCount, plotted to generate dose response curves to calculate percentage inhibition (PIN) and average IC50 for each SIK homologue which are reported in the table below.

A further experiment addresses T2, SIK2 (Homo sapiens, UniProt Q9H0K1).
T2 construct: purchased ThermoFisher Scientific PV4792
Put plainly: ADP-Glo kinase assay, SIK2. It is filed as biochemical. The conditions noted are these: AMARA peptide 45 μM, 5 μM ATP, 120 min.
Excerpt: as §1, §2, §3, §4, §5, §6, §7, §8, §9
For orientation: ADP-Glo turns the ADP formed in a reaction into a luminescent signal.

Experiment [2] relates to LPS-induced TNFα in monocytes. Put plainly: Monocytes assay: LPS-triggered TNFα (ELISA). The experiment is classed as cell-based. The conditions noted are these: Homo sapiens, Monocyte, LPS 200 ng/mL, supernatant after 4 h. How it is done:
SIK inhibition inhibits TNFα and increases IL-10 release in LPS triggered monocyte-derived macrophages (MdM) and dendritic cells (MdDCs) (Clark et al. 2012; Sundberg et al. 2014; Ozanne et al. 2015). This assay evaluates illustrative compounds of the invention for their inhibition of LPS-induced TNFα and LPS triggered IL-10 secretion in monocytes.
PBMCs are isolated from human blood samples (buffycoats). The buffy coat is aseptically transferred into a 50 mL Falcon tube, and diluted ½ in PBS. Falcon tubes are filled with 20 mL Lymphoprep™, on top of which 25 mL of the buffy coat is carefully added, tubes are centrifuged for 35 min at 400 g in temperature controlled centrifuge, without brake, at 25° C. PBMCs are aspirated from the white interface layer between sample and Lymphoprep™. PBMCs are washed five times in PBS. Cells are resuspended in RPMI 1640 complete medium supplemented with 10% FBS, 1% P/S, and cell density is determined using a hematologic analyzer (Sysmex XS-500i).
PBMCs are centrifuged at 300×g for 10 min and resuspended at a density of 1.0*10^7 cells/80 μL Miltenyi buffer (PBS, pH 7.4, 1% FBS, 2 mM EDTA).
Starting from this point of the protocol all steps are performed on ice. 20 μL of CD14+ micro-beads are added per 1.0*10^7 cells, the tube is mixed and incubated for 15 min in the fridge at 4° C. Cell suspension volume is adjusted to total volume of 100 mL using Miltenyi buffer, mixed gently and subsequently centrifuged for 10 min at 300×g. Supernatant is discarded and cell pellet is resuspended in 12 mL of Miltenyi buffer.
Four LS columns are placed in the MACS Separator (magnet) from Miltenyi Biotec, and are prewet by rinsing with 3 mL of MACS buffer per column. Three mL of cell suspension is added onto the column (max 1*10^8 of labelled cells/column), and columns are subsequently washed 3 times with 3 mL of Miltenyi buffer.
The columns are removed from the magnets, and 5 mL of Miltenyi buffer are added to the column to flush out the CD14+ fraction by pushing the plunger into the column. The flushed fractions are collected in a fresh 50 mL Falcon and volume is adjusted to 30 mL using Miltenyi buffer, cells are centrifuged for 10 min at 300×g. The obtained cell pellet is resuspended in 10 mL RPMI w/o FBS, and cell density is determined using a hematologic analyser (Sysmex XS-500i). 100 000 cells are seeded in 80 μL per well of a 96-well plate in RPMI 1640 medium supplemented with 10% FBS, 1% P/S.
A compound dilution plate is made in 100% DMSO by 3-fold dilution of 10 mM stock solution. An intermediate dilution plate (10× final concentration) is made by diluting the compound dilution plate 50-fold in RPMI medium.
10 μL of the 10× final concentration compound is added to the cells and incubated for 1 h at 37° C. before addition of trigger. […]
In general terms: In an ELISA, binding on a coated surface is turned into a signal by an enzyme label.

Another experiment deals with T3, SIK3 (Homo sapiens, UniProt Q9Y2K2).
T3 construct: purchased SignalChem S12-11G-100
T3 sequence (Q9Y2K2 whole entry): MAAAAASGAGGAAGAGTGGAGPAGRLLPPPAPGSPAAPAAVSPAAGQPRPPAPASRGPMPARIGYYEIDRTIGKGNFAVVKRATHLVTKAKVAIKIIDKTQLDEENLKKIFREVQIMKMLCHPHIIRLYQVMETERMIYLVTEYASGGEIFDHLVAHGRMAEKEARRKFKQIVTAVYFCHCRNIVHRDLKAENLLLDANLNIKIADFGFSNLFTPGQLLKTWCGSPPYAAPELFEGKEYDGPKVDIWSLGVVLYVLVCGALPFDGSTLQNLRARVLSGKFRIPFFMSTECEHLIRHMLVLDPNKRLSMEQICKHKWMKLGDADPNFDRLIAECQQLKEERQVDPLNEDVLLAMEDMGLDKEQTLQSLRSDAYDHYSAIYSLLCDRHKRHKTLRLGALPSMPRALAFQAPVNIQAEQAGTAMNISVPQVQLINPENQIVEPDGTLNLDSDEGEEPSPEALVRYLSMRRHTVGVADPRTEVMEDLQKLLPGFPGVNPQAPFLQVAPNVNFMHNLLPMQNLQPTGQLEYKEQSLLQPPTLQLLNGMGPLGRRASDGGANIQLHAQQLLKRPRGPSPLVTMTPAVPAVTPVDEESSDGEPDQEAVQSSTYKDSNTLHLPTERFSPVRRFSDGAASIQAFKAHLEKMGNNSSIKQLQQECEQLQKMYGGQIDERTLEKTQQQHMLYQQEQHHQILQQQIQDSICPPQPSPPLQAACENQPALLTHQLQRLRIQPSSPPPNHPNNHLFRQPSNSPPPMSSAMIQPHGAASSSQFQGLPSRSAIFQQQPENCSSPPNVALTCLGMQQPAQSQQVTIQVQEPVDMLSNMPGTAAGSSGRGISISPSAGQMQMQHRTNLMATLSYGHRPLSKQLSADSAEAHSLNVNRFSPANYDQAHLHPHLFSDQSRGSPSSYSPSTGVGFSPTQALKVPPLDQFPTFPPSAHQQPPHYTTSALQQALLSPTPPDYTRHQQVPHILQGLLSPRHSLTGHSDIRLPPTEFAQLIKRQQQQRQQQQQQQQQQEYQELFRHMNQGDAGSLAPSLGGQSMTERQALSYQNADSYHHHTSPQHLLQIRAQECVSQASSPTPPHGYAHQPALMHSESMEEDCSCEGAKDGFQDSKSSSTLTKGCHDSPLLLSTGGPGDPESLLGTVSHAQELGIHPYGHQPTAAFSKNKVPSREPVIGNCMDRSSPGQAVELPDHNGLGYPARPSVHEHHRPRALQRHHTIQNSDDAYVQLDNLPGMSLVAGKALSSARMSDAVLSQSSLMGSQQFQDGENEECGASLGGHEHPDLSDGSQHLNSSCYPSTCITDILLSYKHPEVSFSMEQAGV
Put plainly: ADP-Glo kinase assay, SIK3. The experiment is classed as biochemical. The conditions noted are these: AMARA peptide 45 μM, 5 μM ATP, 120 min.
Excerpt: as §1, §2, §3, §4, §5, §6, §7, §8, §9

A word on the IC50: it is the concentration that inhibits the measured activity by half. What is called EC50 is the concentration needed to bring the measured effect to its halfway point.

T2 sequence (Q9H0K1 whole entry): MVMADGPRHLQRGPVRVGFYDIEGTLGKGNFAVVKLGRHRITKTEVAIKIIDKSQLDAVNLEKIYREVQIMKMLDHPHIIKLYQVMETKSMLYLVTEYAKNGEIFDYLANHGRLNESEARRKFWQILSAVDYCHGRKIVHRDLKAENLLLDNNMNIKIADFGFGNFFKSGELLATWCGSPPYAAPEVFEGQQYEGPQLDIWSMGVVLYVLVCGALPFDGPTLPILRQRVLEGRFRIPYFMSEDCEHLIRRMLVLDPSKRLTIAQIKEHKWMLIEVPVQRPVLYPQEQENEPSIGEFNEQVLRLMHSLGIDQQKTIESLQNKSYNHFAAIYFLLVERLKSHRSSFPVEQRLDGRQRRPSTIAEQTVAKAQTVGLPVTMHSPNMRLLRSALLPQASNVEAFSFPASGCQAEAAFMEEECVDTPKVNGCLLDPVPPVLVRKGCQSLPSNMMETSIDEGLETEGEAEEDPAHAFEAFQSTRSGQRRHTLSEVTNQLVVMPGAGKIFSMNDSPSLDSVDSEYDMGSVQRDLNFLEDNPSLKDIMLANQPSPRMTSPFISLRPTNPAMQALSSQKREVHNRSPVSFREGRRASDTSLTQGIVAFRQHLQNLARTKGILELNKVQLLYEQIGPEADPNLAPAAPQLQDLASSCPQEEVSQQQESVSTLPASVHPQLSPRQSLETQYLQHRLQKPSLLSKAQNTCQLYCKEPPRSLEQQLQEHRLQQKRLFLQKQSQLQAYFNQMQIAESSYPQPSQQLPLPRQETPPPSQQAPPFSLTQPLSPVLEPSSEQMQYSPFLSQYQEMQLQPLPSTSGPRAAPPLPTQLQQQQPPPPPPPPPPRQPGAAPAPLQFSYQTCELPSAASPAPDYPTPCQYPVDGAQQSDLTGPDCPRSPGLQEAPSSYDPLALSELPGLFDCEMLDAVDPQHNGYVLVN
T1 sequence (P57059 whole entry): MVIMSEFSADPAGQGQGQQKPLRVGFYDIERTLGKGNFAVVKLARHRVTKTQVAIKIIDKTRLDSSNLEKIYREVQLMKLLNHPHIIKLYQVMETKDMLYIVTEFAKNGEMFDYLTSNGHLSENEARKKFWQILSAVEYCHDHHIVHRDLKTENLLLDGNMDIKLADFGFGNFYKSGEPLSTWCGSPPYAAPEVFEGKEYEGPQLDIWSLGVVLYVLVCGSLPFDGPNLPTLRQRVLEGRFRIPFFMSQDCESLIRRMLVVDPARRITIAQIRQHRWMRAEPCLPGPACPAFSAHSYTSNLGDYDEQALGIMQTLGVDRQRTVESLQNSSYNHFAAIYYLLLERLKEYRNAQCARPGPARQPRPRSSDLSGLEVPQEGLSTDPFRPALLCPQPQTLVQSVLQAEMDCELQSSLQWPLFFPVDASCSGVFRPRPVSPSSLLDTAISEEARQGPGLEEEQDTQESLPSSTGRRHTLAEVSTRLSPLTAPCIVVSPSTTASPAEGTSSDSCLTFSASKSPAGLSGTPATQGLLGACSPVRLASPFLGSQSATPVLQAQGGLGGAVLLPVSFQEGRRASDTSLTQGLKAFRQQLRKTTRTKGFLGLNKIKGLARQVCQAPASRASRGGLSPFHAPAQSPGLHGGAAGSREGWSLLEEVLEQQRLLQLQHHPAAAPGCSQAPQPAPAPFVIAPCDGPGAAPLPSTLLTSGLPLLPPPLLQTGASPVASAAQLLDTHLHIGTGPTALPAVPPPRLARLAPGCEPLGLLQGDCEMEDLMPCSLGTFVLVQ

For `COc1ccc(N2C(=O)N(c3c(C)cccc3Cl)Cc3cnc(Nc4ccc(C5CCN(C)CC5)cc4OC)nc32)nc1` [YKL-05-099], the “bone formation and bone mass” value in experiment [1] is “increased bone formation and bone mass”.
For the compound `COc1cc(-c2cnn3cc(OC(C)(C)CN4CC5(COC5)C4)ccc23)cc(OC(F)F)c1C(=O)N[C@@H]1C[C@@H]1F` [Cpd 6, 2-(difluoromethoxy)-4-[6-[1,1-dimethyl-2-(2-oxa-6-azaspiro[3.3]heptan-6-yl)ethoxy]pyrazolo[1,5-a]pyridin-3-yl]-N-[(2S)-2-fluorocyclopropyl]-6-methoxy-benzamide], the IC50 at SIK1 was more than 500 nM; at SIK2 it was 10 to 100 nM; at SIK3 it was 10 to 100 nM. The compound also came in with an EC50 in experiment [2] of 100 to 1000 nM.
On to `COc1cc(-c2cnc3cc(OCCN4CCOCC4)cnn23)cc2c1C(=O)N(CC(F)(F)F)CC2` [Cpd 5, 8-methoxy-6-[7-(2-morpholinoethoxy)imidazo[1,2-b]pyridazin-3-yl]-2-(2,2,2-trifluoroethyl)-3,4-dihydroisoquinolin-1-one], for which the IC50 is more than 500 nM on SIK1, 10 to 100 nM against SIK2 and 10 to 100 nM against SIK3.
With `COc1cc(-c2cnn3cc(OCCN4CCOCC4)cnc23)cc2c1C(=O)N(CC(F)(F)F)CC2` [Cpd 4, 8-methoxy-6-[6-(2-morpholinoethoxy)pyrazolo[1,5-a]pyrimidin-3-yl]-2-(2,2,2-trifluoroethyl)-3,4-dihydroisoquinolin-1-one], the values for the IC50 at SIK1, against SIK2 and at SIK3 were more than 500 nM, 10 to 100 nM and 10 to 100 nM, respectively.
